Laboratory results taken from ChEMBL document CHEMBL1144317, “Antimitotic activity and reversal of breast cancer resistance protein-mediated drug resistance by stilbenoids from Bletilla striata” (Bioorg Med Chem Lett, 2005).

Each compound was assayed against Beta tubulin (assay: Inhibition of tubulin polymerization interacting at the colchicine binding site.).
Format: functional
With `COc1c(Cc2ccc(O)cc2)c(O)c(Cc2ccc(O)cc2)c2c1-c1ccc(O)cc1CC2` the IC50 was 30 µM.
With `COc1cc(O)c2c(c1Cc1ccc(O)cc1)CCc1cc(O)ccc1-2` the IC50 was 300 µM.
With `COc1cc(O)c(-c2c(O)cc(OC)c3c2ccc2cc(O)ccc23)c2ccc3cc(O)ccc3c12` [CIRRHOPETALANTHIN] the IC50 was 30 µM.
`COc1cc(O)c(-c2c(O)cc(OC)c3c2ccc2cc(O)ccc23)c2c1-c1ccc(O)cc1CC2` [CIRRHOPETALANTHRIN] was tested, and the IC50 was 30 µM.
`COc1c(O)ccc2c1ccc1c(Cc3ccc(O)cc3)c(O)cc(OC)c12` gave an IC50 of 30 µM.
For `COc1cc(O)cc(CCc2cccc(O)c2)c1Cc1ccc(O)cc1`, the IC50 was 10 µM.
For `COc1cc(O)c(-c2c(O)cc3c(c2OC)-c2ccc(O)cc2CC3)c2c1-c1ccc(O)cc1CC2`, the IC50 was 30 µM.
In the case of `CC[C@]1(O)C[C@@H]2CN(CCc3c([nH]c4ccccc34)[C@@](C(=O)OC)(c3cc4c(cc3OC)N(C)[C@H]3[C@@](O)(C(=O)OC)[C@H](OC(C)=O)[C@]5(CC)C=CCN6CC[C@]43[C@@H]65)C2)C1` [VINBLASTINE], the IC50 is reported as 1 µM.
`COc1cc(O)c(Cc2ccc(O)cc2)c(CCc2cccc(O)c2)c1Cc1ccc(O)cc1` was tested, and the IC50 was 10 µM.
